{"source": "patent US20260224594A1", "about": "“COMPOSITION FOR TREATING CANCER CACHEXIA, COMPRISING DIFLUNISAL OR A PHARMACEUTICALLY ACCEPTABLE SALT THEREOF” (ANIMUSCURE INC., priority 2023, published 2026)", "key": {"C2C12 myoblast cells [1]": {"tested_on": "C2C12 myoblast cells", "assay": "Cytotoxicity of diflunisal, MTT assay", "type": "cell-based, mouse", "conditions": "approximately 10,000 nM, 18 hours, vs control", "experimental": "C2C12 is a myoblast cell line obtained from the C3H mouse strain, and is widely used to study muscle cell differentiation. The cells were cultured in a cell culture medium (growth medium (GM)), and muscle cell differentiation was induced in a differentiation medium (DM). DMEM containing 15% fetal bovine serum (FBS) was used as the cell culture medium, and DMEM containing 2% horse serum was used as the differentiation medium.\nThe cytotoxicity of diflunisal (CAS No. 22494-42-4, W06) was evaluated using an MTT assay. C2C12 myoblast cells were treated with diflunisal at concentrations of 0, 1, 10, 100, 1,000, and 10,000 nM for 18 hours, and cell viability was then confirmed using the MTT assay. Myoblast cells (1.0×10^4 cells/96 well) were allowed to react with 5 mg/mL MTT for 4 hours in a cell culture medium, and the eluted reaction product was then measured for absorbance at 570 nm."}, "C2C12 myoblast cells [2]": {"tested_on": "C2C12 myoblast cells", "assay": "Dexamethasone (DEX)-induced muscle atrophy in C2C12 myotubes", "type": "cell-based, mouse", "conditions": "100 μM DEX pretreatment 4 hours, diflunisal 1 μM, 24 hours in DM", "experimental": "To determine whether diflunisal could recover or protect muscles from dexamethasone (DEX)-induced muscle atrophy, this experiment was performed using C2C12 myoblast cells. C2C12 myoblast cells were differentiated in a differentiation medium (DM) for 2 days, pretreated with 100 μM DEX for 4 hours, and then treated with diflunisal (1 μM) together with DMSO as a vehicle. Then, the C2C12 myoblast cells were further cultured in DM for 24 hours. Immunofluorescence staining was performed on dexamethasone-treated C2C12 myotube cells using an MHC antibody to compare and analyze the degree of myotube formation. […] Also, when the expression level of atrogin-1, which is a muscle atrophy marker, was confirmed through immunoblotting, it was confirmed that its expression increased when dexamethasone was administered."}, "[3]": {"tested_on": "C57BL/6 male mice with CTX-induced muscle damage", "assay": "Stem cell proliferation in cardiotoxin (CTX) muscle damage animal model, BrdU staining of TA muscle", "type": "in vivo, mouse", "conditions": "oral 0.02 mg/kg for 2 weeks, CTX injection, then 0.02 mg/kg for 3 days", "experimental": "C57BL/6 male mice were orally administered diflunisal at a dose of 0.02 mg/kg for 2 weeks, and then on the second week, 10 μM cardiotoxin (CTX) was directly injected into the muscle at 2 μL per g of body weight to induce muscle damage. Thereafter, diflunisal was administered at a dose of 0.02 mg/kg for 3 days. Then, immunofluorescence staining was performed on the TA muscle tissue of the mice using a BrdU antibody. […] Also, a quantitative comparison confirmed that the proportion of BrdU-positive cells increased by more than 2.5 times compared to the control when the cells were treated with diflunisal (FIG. 8)."}, "[4]": {"tested_on": "muscle cells (myotubes) in cancer cell culture medium (CM)", "assay": "Cachexia induced by cancer cell culture medium (CM) in muscle cells", "type": "cell-based", "conditions": "10, 100, 1,000 nM", "experimental": "To confirm the amelioration effect of diflunisal on cancer cachexia, cancer cachexia was induced in muscle cells using a cancer cell culture medium (CM) (FIG. 11, top). […] Also, the diameter of the myotubes was measured to confirm the improvement."}, "C2C12 cell lines [5]": {"tested_on": "C2C12 cell lines", "assay": "Muscle cell differentiation, MHC immunofluorescence staining and myotube diameter", "type": "cell-based, mouse", "conditions": "10, 100, 1,000, 10,000 nM, day 3 of differentiation induction", "experimental": "(§1) C2C12 is a myoblast cell line obtained from the C3H mouse strain, and is widely used to study muscle cell differentiation. The cells were cultured in a cell culture medium (growth medium (GM)), and muscle cell differentiation was induced in a differentiation medium (DM). DMEM containing 15% fetal bovine serum (FBS) was used as the cell culture medium, and DMEM containing 2% horse serum was used as the differentiation medium. To induce muscle cell differentiation, cells were seeded in a cell culture medium and cultured. When the density of cells reached approximately 80% to 90%, the medium was replaced with a differentiation medium, and differentiation was induced for approximately 2 to 3 days. To analyze the effect of diflunisal on the differentiation of muscle stem cells, MHC immunofluorescence staining was performed (FIG. 2). […] On day 3 of differentiation induction, immunofluorescence staining was performed using an MHC antibody to compare and analyze the degree of myotube formation."}, "[6]": {"tested_on": "C57BL/6 mice injected with Lewis lung carcinoma", "assay": "Cancer cachexia animal model (Lewis lung carcinoma injected mice)", "type": "in vivo, mouse", "experimental": "Lewis lung carcinoma (LCC, 5×10^6 cells/mice) was injected into C57BL/6 mice to induce lung cancer. Two weeks after injection, diflunisal was orally administered daily for 21 days at a dose of 0.02 or 0.2 mpk (FIG. 13). Thereafter, the changes in body weight, tumor weight, and tumor-free body weight for each mouse were measured. […] To compare the motor ability in the cancer cachexia-induced mouse model, a grip strength test was conducted for each experimental group. […]"}, "C2C12 myoblast cells [7]": {"tested_on": "C2C12 myoblast cells", "assay": "Myoblast proliferation, BrdU staining", "type": "cell-based, mouse", "conditions": "1 μM, approximately 20 hours", "experimental": "To analyze the effect of diflunisal on the proliferation of myoblast cells, a BrdU staining experiment was performed. C2C12 myoblast cells were treated with DMSO as a control or diflunisal (1 μM) for approximately 20 hours, and then allowed to react with BrdU for 15 minutes. Thereafter, immunofluorescence staining was performed using an antibody against BrdU (FIG. 5A). As a result, it was confirmed that the proliferation of myoblast cells increased in the group treated with diflunisal."}, "Pax7": {"tested_on": "Pax7", "assay": "Pax7 mRNA expression (qRT-PCR)", "type": "cell-based, mouse", "conditions": "C2C12 cells treated with diflunisal", "text": "FIGS. 5A-5B and 6 show the results of confirming the stem cell differentiation-promoting effect through administration of diflunisal. […] In addition, it was confirmed whether the expression level of Pax7, which is a muscle proliferation marker, increased due to diflunisal treatment."}, "C2C12 cell lines [8]": {"tested_on": "C2C12 cell lines", "assay": "Immunoblotting of differentiation markers MHC and myogenin", "type": "cell-based, mouse", "conditions": "positive control ursolic acid (UA)", "experimental": "as §1, with “formation. […] In addition, the expression levels of differentiation markers were confirmed through immunoblotting.” for “formation.”"}, "[9]": {"conditions": "cancer cachexia-induced mice, diflunisal administered"}}}
{"smiles": "O=C(O)c1cc(-c2ccc(F)cc2F)ccc1O", "note": "[diflunisal]", "values": [{"measurement": "cell viability (MTT assay)", "setting": "C2C12 myoblast cells [1]", "value": "almost similar to that of the control"}, {"measurement": "MHC expression (immunofluorescence) after dexamethasone-induced atrophy", "setting": "C2C12 myoblast cells [2]", "value": "restored"}, {"measurement": "MuRF1 expression (qRT-PCR)", "setting": "C2C12 myoblast cells [2]", "value": "significantly reduced"}, {"measurement": "expression level of atrogin-1 (muscle atrophy marker, immunoblotting)", "setting": "C2C12 myoblast cells [2]", "value": "decreased again"}, {"measurement": "increase of proportion of BrdU-positive cells compared to the control", "setting": "[3]; TA muscle", "value": "more than 2.5 times"}, {"measurement": "proliferation of myoblast cells in TA muscle (BrdU staining)", "setting": "[3]", "value": "increased"}, {"measurement": "diameter of myotubes in CM-induced cancer cachexia model", "setting": "[4]", "value": "increased in a concentration-dependent manner"}, {"measurement": "diameter of myotubes", "setting": "C2C12 cell lines [5]", "value": "increased in a concentration-dependent manner"}, {"measurement": "muscle cell differentiation (myotube formation, MHC immunofluorescence)", "setting": "C2C12 cell lines [5]; vs DMSO control", "value": "promoted in a concentration-dependent manner"}, {"measurement": "tumor-free body weight", "setting": "[6]; 0.02 mpk oral daily for 21 days, vs cancer-induced group", "value": "significantly increased compared to the cancer-induced group"}, {"measurement": "grip strength (motor ability)", "setting": "[6]; 0.02 or 0.2 mpk oral daily for 21 days, vs cancer-induced group", "value": "increased in a concentration-dependent manner"}, {"measurement": "muscle mass loss of hindlimb muscles (TA, EDL, SOL, GA)", "setting": "[6]; [9]", "value": "significantly improved"}, {"measurement": "reduction in fat and organ weights (white fat, visceral fat, liver, heart, spleen)", "setting": "[6]; [9]", "value": "improved"}, {"measurement": "relative mRNA expression level of MuRF-1", "setting": "[6]; [9]", "value": "decreased again"}, {"measurement": "relative mRNA expression level of atrogin-1", "setting": "[6]; [9]", "value": "decreased again"}, {"measurement": "change (decrease) in tumor-free body weight", "setting": "[6]; oral daily for 21 days, 0.02 or 0.2 mpk", "value": "improved"}, {"measurement": "overall body weight", "setting": "[6]; oral daily for 21 days, 0.02 or 0.2 mpk, all experimental groups", "value": "no significant change"}, {"measurement": "proliferation of myoblast cells (BrdU immunofluorescence staining)", "setting": "C2C12 myoblast cells [7]; vs DMSO", "value": "increased"}, {"measurement": "proportion of BrdU-positive cells", "setting": "C2C12 myoblast cells [7]; vs DMSO control", "value": "significantly increased compared to the control"}, {"measurement": "relative expression level of Pax7 mRNA", "setting": "Pax7", "value": "increased"}, {"measurement": "expression of differentiation marker MHC (immunoblotting)", "setting": "C2C12 cell lines [8]", "value": "induced an increase in the expression"}, {"measurement": "expression of differentiation marker myogenin (immunoblotting)", "setting": "C2C12 cell lines [8]", "value": "induced an increase in the expression"}]}
